In patent US8633182B2, “Indanyloxyphenylcyclopropanecarboxylic acids” (Boehringer Ingelheim International GmbH, priority 2012, dated 2014):
pEC50: −log10 of the molar value.

target: human GPR40 receptor (Homo sapiens, UniProt O14842); assay: IP1 accumulation measurements using the IPOne assay system in 1321N1 cells stably expressing human GPR40 receptor; format: cell-based; conditions: IP1 accumulation (HTRF), 1321N1 cells stably expressing human GPR40, 1 hour stimulation at 37° C.
Method: IP1 accumulation measurements using the IPOne assay system—1321N1 cells stably expressing human GPR40 receptor (Euroscreen, Belgium) are seeded 24 h before the assay in black clear-bottom collagen-coated or white 384-well plates in culture medium containing 10% FCS, 1% Na-Pyruvate and 400 μg/mL G418. IP1 is assayed according to the Manufacturer's description (Cisbio Bioassays, France). In brief, the assay is started by substitution of the culture medium by stimulation buffer (Hepes 10 mM, CaCl2 1 mM, MgCl2 0.5 mM, KCl 4.2 mM, NaCl 146 mM and glucose 5.5 mM, pH 7.4) without LiCl or with […]. Cells are stimulated for 1 hour at 37° C., 5 or 10% CO2 by addition of the compounds that are diluted in stimulation buffer containing LiCl yielding a final LiCl concentration of 50 mM. Assays are stopped by adding HTRF-conjugates (IP1-d2 and Anti-IP1 cryptate Tb) and lysis buffer, provided by the manufacturer. After an incubation time of 1 hour at room temperature plates are measured using an EnVision™, Perkin Elmer. The obtained fluorescence ratios at […] are then used to calculate the pEC50 values using GraphPad Prism 5 (Graphpad Software Inc, USA) or Assay Explorer 3.3 Software (Accelrys, Inc.) by interpolation using an IP1 reference curve and subsequent sigmoidal curve fitting allowing for a variable hill slope.

human GPR40 receptor, sequence (O14842 whole entry): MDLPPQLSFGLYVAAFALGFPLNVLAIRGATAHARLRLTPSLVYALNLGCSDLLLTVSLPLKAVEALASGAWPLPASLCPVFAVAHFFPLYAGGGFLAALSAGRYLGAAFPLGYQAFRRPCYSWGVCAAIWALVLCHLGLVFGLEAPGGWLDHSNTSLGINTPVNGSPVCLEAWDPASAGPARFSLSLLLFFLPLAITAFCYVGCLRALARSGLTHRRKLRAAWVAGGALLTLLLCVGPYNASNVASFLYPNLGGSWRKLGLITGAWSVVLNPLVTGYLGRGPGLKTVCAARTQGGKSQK

SMILES | pEC50
Cc1cc(OCCC(C)(C)O)cc(C)c1-c1c(C#N)ccc2c1CC[C@H]2Oc1ccc([C@H]2C[C@@H]2C(=O)O)cc1 [Example 34] | 8.10
Cc1cc(OC(C)(C)CO)cc(C)c1-c1ccc(F)c2c1CC[C@H]2Oc1ccc([C@H]2C[C@@H]2C(=O)O)cc1 [Example 26] | 8.10
Cc1cc(OCC2(CO)CC2)cc(C)c1-c1ccc(F)c2c1CC[C@H]2Oc1ccc([C@H]2C[C@@H]2C(=O)O)cc1 [Example 32] | 8.40
O=C(O)C1CC1c1ccc(O[C@@H]2CCc3c(OC(F)(F)F)cccc32)cc1F (stereo in doubt) [Example 6, 2-[4-((R)-4-Trifluoromethoxy-indan-1-yloxy)-2-fluorophenyl]-trans-cyclopropanecarboxylic acid] | 7.01
Cn1ncc2c(-c3ccc(F)c4c3CC[C@H]4Oc3ccc([C@H]4C[C@@H]4C(=O)O)cc3)cccc21 [Example 59] | 7.77
COc1cc(O[C@@H]2CCc3c2cccc3C(F)(F)F)ccc1C1CC1C(=O)O (stereo in doubt) [Example 7, 2-[4-((R)-4-Trifluoromethyl-indan-1-yloxy)-2-methoxyphenyl]-trans-cyclopropanecarboxylic acid] | 6.27
Cc1cc(-c2nnnn2C)cc(C)c1-c1ccc(F)c2c1CC[C@H]2Oc1ccc([C@H]2C[C@@H]2C(=O)O)cc1 [Example 44] | 7.92
Cc1cc(O[C@@H]2CCOC2)cc(C)c1-c1ccc(F)c2c1CC[C@H]2Oc1ccc([C@H]2C[C@@H]2C(=O)O)cc1 [Example 25] | 7.89
Cc1cc(OCCCS(C)(=O)=O)cc(C)c1-c1ccc(F)c2c1CC[C@H]2Oc1ccc([C@@H]2C[C@H]2C(=O)O)cc1 [Example 12, (1R,2R)-2-(4-{(R)-7-Fluoro-4-[4-(3-methanesulfonyl-propoxy)-2,6-dimethyl-phenyl]-indan-1-yloxy}-phenyl)-cyclopropanecarboxylic acid] | 6.48
Cc1cc(O[C@@H]2CCN(S(C)(=O)=O)C2)cc(C)c1-c1c(C#N)ccc2c1CC[C@H]2Oc1ccc([C@H]2C[C@@H]2C(=O)O)cc1 [Example 37] | 7.49
Cc1cc(OCC2(S(C)(=O)=O)CC2)cc(C)c1-c1ccc(F)c2c1CC[C@H]2Oc1ccc([C@H]2C[C@@H]2C(=O)O)cc1 [Example 18, (1S,2S)-2-(4-{(R)-7-Fluoro-4-[4-(1-methanesulfonyl-cyclopropylmethoxy)-2,6-dimethyl-phenyl]-indan-1-yloxy}-phenyl)-cyclopropane-carboxylic acid] | 8.30
O=C(O)[C@H]1C[C@@H]1c1ccc(O[C@@H]2CCc3c(-c4ccccc4-c4cnco4)ccc(F)c32)cc1 [Example 62] | 7.54
Cn1ccc2cccc(-c3ccc(F)c4c3CC[C@H]4Oc3ccc([C@H]4C[C@@H]4C(=O)O)cc3)c21 [Example 60] | 8.52
